Source: the NIST ThermoML archive (doi:10.1016/j.jct.2019.03.023)

Assay: molar heat capacity at constant volume
Conditions: Fluid (supercritical or subcritical phases), Vacuum adiabatic calorimetry

CC(C)O [propan-2-ol]
Conditions | molar heat capacity at constant volume [J/K/mol]
501.94 K, Mass density=343.1 kg/m3 | 317.72
502.03 K, Mass density=266.3 kg/m3 | 345.37
502.04 K, Mass density=343.1 kg/m3 | 315.2
502.13 K, Mass density=266.3 kg/m3 | 347.59
502.13 K, Mass density=343.1 kg/m3 | 309.67
502.22 K, Mass density=266.3 kg/m3 | 350.23
502.22 K, Mass density=343.1 kg/m3 | 314.54
502.31 K, Mass density=266.3 kg/m3 | 348.13
502.32 K, Mass density=343.1 kg/m3 | 312.25
502.41 K, Mass density=266.3 kg/m3 | 351.2
502.41 K, Mass density=343.1 kg/m3 | 317.66
502.5 K, Mass density=266.3 kg/m3 | 350.29
502.5 K, Mass density=343.1 kg/m3 | 312.07
502.6 K, Mass density=266.3 kg/m3 | 350.29
502.6 K, Mass density=343.1 kg/m3 | 310.39
503.92 K, Mass density=329.2 kg/m3 | 322.05
504.02 K, Mass density=329.2 kg/m3 | 325.72
504.11 K, Mass density=329.2 kg/m3 | 323.31
504.3 K, Mass density=329.2 kg/m3 | 318.86
504.37 K, Mass density=281.9 kg/m3 | 348.13
504.46 K, Mass density=281.9 kg/m3 | 351.02
504.5 K, Mass density=329.2 kg/m3 | 325.72
504.56 K, Mass density=234.3 kg/m3 | 386.83
504.56 K, Mass density=281.9 kg/m3 | 346.57
504.59 K, Mass density=329.2 kg/m3 | 319.65
504.65 K, Mass density=234.3 kg/m3 | 381.48
504.65 K, Mass density=281.9 kg/m3 | 351.08
504.74 K, Mass density=234.3 kg/m3 | 386.35
504.74 K, Mass density=281.9 kg/m3 | 346.63
504.84 K, Mass density=234.3 kg/m3 | 392.36
504.84 K, Mass density=281.9 kg/m3 | 355.64
504.93 K, Mass density=281.9 kg/m3 | 355.64
504.97 K, Mass density=234.3 kg/m3 | 391.52
504.98 K, Mass density=329.2 kg/m3 | 328.36
505.02 K, Mass density=281.9 kg/m3 | 349.27
505.08 K, Mass density=329.2 kg/m3 | 326.92
505.12 K, Mass density=234.3 kg/m3 | 387.07
505.12 K, Mass density=281.9 kg/m3 | 354.2
505.21 K, Mass density=234.3 kg/m3 | 382.87
505.21 K, Mass density=281.9 kg/m3 | 355.76
505.21 K, Mass density=324.5 kg/m3 | 333.29
505.27 K, Mass density=329.2 kg/m3 | 325.96
505.3 K, Mass density=234.3 kg/m3 | 387.13
505.3 K, Mass density=324.5 kg/m3 | 339.78
505.37 K, Mass density=329.2 kg/m3 | 325.35
505.4 K, Mass density=234.3 kg/m3 | 387.13
505.49 K, Mass density=288.99 kg/m3 | 349.87
505.58 K, Mass density=288.99 kg/m3 | 350.77
505.58 K, Mass density=324.5 kg/m3 | 333.05
505.68 K, Mass density=288.99 kg/m3 | 343.14
505.68 K, Mass density=324.5 kg/m3 | 338.82
505.77 K, Mass density=288.99 kg/m3 | 350.47
505.77 K, Mass density=324.5 kg/m3 | 335.27
505.77 K, Mass density=343.1 kg/m3 | 323.67
505.86 K, Mass density=288.99 kg/m3 | 346.63
505.86 K, Mass density=324.5 kg/m3 | 337.13
505.86 K, Mass density=343.1 kg/m3 | 325.29
505.96 K, Mass density=288.99 kg/m3 | 350.53
505.96 K, Mass density=324.5 kg/m3 | 332.09
505.96 K, Mass density=343.1 kg/m3 | 323.97
506.05 K, Mass density=288.99 kg/m3 | 354.32
506.05 K, Mass density=324.5 kg/m3 | 336.65
506.05 K, Mass density=343.1 kg/m3 | 326.26
506.14 K, Mass density=288.99 kg/m3 | 350.59
506.14 K, Mass density=324.5 kg/m3 | 342.42
506.14 K, Mass density=343.1 kg/m3 | 328.36
506.24 K, Mass density=288.99 kg/m3 | 350.65
506.24 K, Mass density=324.5 kg/m3 | 340.02
506.24 K, Mass density=343.1 kg/m3 | 327.04
506.33 K, Mass density=274 kg/m3 | 361.17
506.33 K, Mass density=288.99 kg/m3 | 346.33
506.33 K, Mass density=324.5 kg/m3 | 336.41
506.33 K, Mass density=343.1 kg/m3 | 326.44
506.42 K, Mass density=274 kg/m3 | 362.97
506.42 K, Mass density=343.1 kg/m3 | 329.92
506.43 K, Mass density=329.2 kg/m3 | 328.06
506.52 K, Mass density=274 kg/m3 | 361.05
506.52 K, Mass density=288.99 kg/m3 | 351.92
506.52 K, Mass density=324.5 kg/m3 | 341.04
506.52 K, Mass density=343.1 kg/m3 | 328.3
506.53 K, Mass density=329.2 kg/m3 | 330.64
506.61 K, Mass density=274 kg/m3 | 365.62
506.61 K, Mass density=288.99 kg/m3 | 355.52
506.61 K, Mass density=343.1 kg/m3 | 329.98
506.62 K, Mass density=329.2 kg/m3 | 335.93
506.7 K, Mass density=288.99 kg/m3 | 357.63
506.7 K, Mass density=324.5 kg/m3 | 343.74
506.72 K, Mass density=329.2 kg/m3 | 332.69
506.8 K, Mass density=288.99 kg/m3 | 349.21
506.8 K, Mass density=343.1 kg/m3 | 329.08
506.82 K, Mass density=329.2 kg/m3 | 332.27
506.89 K, Mass density=288.99 kg/m3 | 354.98
